Data reported in patent US11453647B2, “Benzimidazole derivatives as adenosine receptor antagonists” (Merck Patent GmbH, priority 2017, dated 2022).

Columns and labels:
[1] = molecular target: T1, A2B receptors (Homo sapiens, UniProt P29275); conditions: antagonists; cited from earlier work
T1 sequence (P29275 1-332): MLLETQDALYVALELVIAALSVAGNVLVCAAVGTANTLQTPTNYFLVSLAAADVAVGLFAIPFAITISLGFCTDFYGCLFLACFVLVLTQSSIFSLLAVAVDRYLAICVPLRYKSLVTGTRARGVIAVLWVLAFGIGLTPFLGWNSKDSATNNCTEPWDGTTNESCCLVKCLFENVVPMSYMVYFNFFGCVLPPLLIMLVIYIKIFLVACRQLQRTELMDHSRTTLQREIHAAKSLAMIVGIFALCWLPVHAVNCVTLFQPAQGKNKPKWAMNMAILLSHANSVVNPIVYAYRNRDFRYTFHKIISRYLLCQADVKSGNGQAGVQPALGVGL

[2] = molecular target: T2, human A1 receptor (Homo sapiens, UniProt P30542); experiment: functional cAMP (HTRF) assay, recombinant CHO cells expressing human A1 receptor, forskolin, agonist CPA; format: cell-based
T2 construct: expressed in transfected cells; host or cells: CHO
T2 sequence (P30542 1-326): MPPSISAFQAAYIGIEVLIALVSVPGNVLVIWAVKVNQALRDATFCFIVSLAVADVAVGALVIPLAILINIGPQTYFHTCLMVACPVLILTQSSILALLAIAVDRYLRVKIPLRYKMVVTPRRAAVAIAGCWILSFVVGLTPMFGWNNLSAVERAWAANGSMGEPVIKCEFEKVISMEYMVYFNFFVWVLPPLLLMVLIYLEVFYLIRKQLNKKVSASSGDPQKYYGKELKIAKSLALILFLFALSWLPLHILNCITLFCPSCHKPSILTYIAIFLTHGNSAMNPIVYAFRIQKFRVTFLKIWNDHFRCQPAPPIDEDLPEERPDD
Outline: (§1)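 CHO cells (hA1 or hA3) + forskolin + test cpd + agonist (CPA/A1, IB-MECA/A3), 30 min; HTRF cAMP readout; normalized vs inhibitor and DMSO controls, curve fit.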

[3] = molecular target: T3, human A2A receptor (Homo sapiens, UniProt P29274); experiment: functional cAMP (HTRF) assay, recombinant HEK293 cells expressing human A2A receptor, agonist NECA; format: cell-based
T3 construct: expressed in transfected cells; host or cells: HEK293
T3 sequence (P29274 whole entry): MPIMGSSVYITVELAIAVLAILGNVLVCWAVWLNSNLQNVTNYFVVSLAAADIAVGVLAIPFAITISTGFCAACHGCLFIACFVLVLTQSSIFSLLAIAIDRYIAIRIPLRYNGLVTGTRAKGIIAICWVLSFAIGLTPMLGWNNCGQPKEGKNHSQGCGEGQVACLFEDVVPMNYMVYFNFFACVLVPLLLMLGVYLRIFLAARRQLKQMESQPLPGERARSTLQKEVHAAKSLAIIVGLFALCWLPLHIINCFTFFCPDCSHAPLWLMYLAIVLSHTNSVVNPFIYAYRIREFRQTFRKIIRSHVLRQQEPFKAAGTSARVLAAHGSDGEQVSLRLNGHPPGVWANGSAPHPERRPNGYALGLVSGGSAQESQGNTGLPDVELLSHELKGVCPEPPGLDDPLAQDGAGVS

[4] = system: mouse Pan T cells; experiment: mouse Pan T cell IFN-γ rescue from A2A agonist CGS-21680 (ELISA, 48 h); format: cell-based; conditions: Mus musculus, T-cell
From the text: (§2) Adenosine (Ado) in tumor microenvironment can inhibit T cell activity by signaling through A2A receptors and suppress cytokine secretion by T cells. […] Potential A2A antagonists or A2A/A2B dual antagonists can rescue T cells from this inhibition. Herein, we describe the in vitro system we established using Pan T cells from mouse spleens to screen potential A2A antagonists or A2A/A2B dual antagonists for their activity. The method described involves the use of CD3/CD28 pre-coated beads to stimulate Pan T cells purified from mouse splenocytes, combined with the addition of A2A agonist along with potential A2A or A2A/A2B dual antagonists to evaluate potentiation of T cell cytokine production.
(§3) Briefly, mouse Pan T cells are purified from spleens of BALB/c mice using Pan T cell isolation kit Mouse II (MACS Miltenyi biotech Cat # Order no. 130-095-130) according to manufacturer's protocol. The purified T cells are seeded in Nunc™ 96-Well Polystyrene Round Bottom Microwell Plates in RPMI medium with 10% heat inactivated fetal bovine serum. The cells are rested at 37° C. for 1 h before activating with CD3/CD28 pre-coated beads (Dynabeads™ Mouse T-Activator CD3/CD28; Cat #11456D). After 30 min the cells are treated with varying doses of test antagonist(s). […] After 24 h incubation IL-2 levels in the supernatants and after 48 h incubation IFN-γ levels in the supernatants are measured by ELISAs according to manufacturer's protocol (R&D systems Cat # DY402 (IL-2); DY485 (IFN-γ)). Once the concentrations are calculated, the difference of cytokine concentration of DMSO control and agonist alone control is calculated (called A) and the percentage of rescue by each concentration of antagonist is calculated by using Microsoft Excel. These percentages of cytokine rescue in a dose dependent manner of antagonist is plotted in GraphPad Prism software and IC50 is calculated.

[5] = system: mouse Pan T cells; experiment: mouse Pan T cell IL-2 rescue from A2A agonist CGS-21680 (ELISA, 24 h); format: cell-based; conditions: Mus musculus, T-cell
From the text: as §2, §3

[6] = pharmacokinetic properties in mouse after single intravenous and oral administration; format: in vivo; conditions: PK data in mouse; for Feces iv: @0.2 (dose, unit not given); for clearance / half-life / Cmax / Vd: female, plasma, 0.2 mg/kg; for Cmax: dose-normalized to 1 mg/kg; for Vd: read-out: Vss
From the text: The objective of the study was to obtain information on the pharmacokinetic properties of the compounds of the present invention in female Wistar rats/mice following single intravenous and oral administration.
Female Wistar rats/mice (n=6) received either a single intravenous (bolus) injection or an oral administration (by gavage) of the tested compound.
The concentrations of the compounds in plasma, feces were quantified using an UPLC method with tandem mass spectrometric detection (LC-MS/MS) previously developed at the ‘Institute of Drug Metabolism and Pharmacokinetics’. The LC-MS/MS system consisted of a Waters Acquity UPLC coupled to an AB Sciex mass spectrometer API 5500 Q-trap. […] The detection of the compounds was performed using multiple reaction monitoring in the positive ionization mode. Plasma samples were spiked with internal standard (20 μl) and the analyte was extracted from the matrix using tertiary-butyl methyl ether (tBME). The organic phase was evaporated to dryness under a stream of nitrogen. The residue was dissolved in acetonitrile/0.1% formic acid for LC-MS/MS analysis. Feces samples were homogenized with 4-times their volume of an ethanol/water mixture (4:1, v/v). Aliquots of the aqueous-ethanolic extracts were spiked with internal standard, diluted with acetonitrile/water (1:1, v/v) and directly injected into the LC-MS/MS system.
Pharmacokinetic parameters Cmax and tmax were taken from the observed data. […] AUC values were calculated by non-compartmental analysis using the linear up/log down method. Numerical data for mean plasma concentrations and derived pharmacokinetic parameters were rounded to 3 significant digits for presentation.

[7] = molecular target: T1, A2B receptors; experiment: functional cAMP (HTRF) assay, recombinant HEK293 cells expressing human A2B receptor, agonist NECA; format: cell-based; design: expressed in transfected cells; host or cells: HEK293
[8] = molecular target: T4, human A3 receptor (Homo sapiens, UniProt P0DMS8); experiment: functional cAMP (HTRF) assay, recombinant CHO cells expressing human A3 receptor, forskolin, agonist IB-MECA; format: cell-based
T4 construct: expressed in transfected cells; host or cells: CHO
T4 sequence (P0DMS8 1-318): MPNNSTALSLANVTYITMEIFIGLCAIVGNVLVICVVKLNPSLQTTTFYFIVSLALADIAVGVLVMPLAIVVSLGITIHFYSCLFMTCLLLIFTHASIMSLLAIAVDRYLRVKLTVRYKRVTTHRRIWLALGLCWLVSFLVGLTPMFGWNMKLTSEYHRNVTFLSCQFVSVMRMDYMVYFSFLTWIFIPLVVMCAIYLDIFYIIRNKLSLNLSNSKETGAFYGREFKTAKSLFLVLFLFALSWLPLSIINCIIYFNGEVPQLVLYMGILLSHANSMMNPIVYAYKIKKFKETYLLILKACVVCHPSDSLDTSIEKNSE
Outline: as §1

Row | Compound | affinities on A2B receptors [1] | IC50 [2] [µM] | IC50 [3] [µM] | IC50 [4] [µM] | IC50 [5] [µM] | Feces iv [6] | clearance [6] [L/h/kg] | half-life [6] [min] | Cmax [6] [µg/mL] | Vd [6] [L/kg] | IC50 [7] [µM] | IC50 [8] [µM]
1 | CCCn1c(=O)c2[nH]c(-c3ccc(S(=O)(=O)O)cc3)nc2n(CCC)c1=O [DPSPX, 1,3-dipropyl-8-sulphophenylxanthine] | mid to high nM range | – | – | – | – | – | – | – | – | – | – | –
2 | O=c1[nH]c(=O)c2nc3ccccc3nc2[nH]1 [alloxazine, 2,4-dioxobenzopteridine] | mid to high nM range | – | – | – | – | – | – | – | – | – | – | –
3 | C#CCC1(O)CCN(C(=O)Nc2nc3c(-c4cnn(C)c4)ccc(OC)c3[nH]2)CC1 [compound 92, 4-hydroxy-N-[7-methoxy-4-(1-methyl-1H-pyrazol-4-yl)-1H-1,3-benzodiazol-2-yl]-4-(prop-2-yn-1-yl)piperidine-1-carboxamide] | – | > 1 | < 0.01 | 0.5 | 1 | 26@0.2% | 1.9 | 33.4 | 0.892 | 1.17 | < 1 | > 1
4 | COc1ccc(-c2cnn(C)c2)c2nc(NC(=O)c3ccc(C(=O)N(C)C)cc3)[nH]c12 [compound 93, N4-[7-methoxy-4-(1-methyl-1H-pyrazol-4-yl)-1H-1,3-benzodiazol-2-yl]-N1,N1-dimethylbenzene-1,4-dicarboxamide] | – | > 1 | < 0.01 | 0.35 | 0.111 | 42@0.2% | 0.406 | 46.1 | 3.16 | 0.357 | < 0.1 | > 1
5 | COc1ccc(-c2cnn(C)c2)c2nc(NC(=O)c3ccc(CN4CCCC4=O)cc3)[nH]c12 [compound 100, N-[7-methoxy-4-(1-methyl-1H-pyrazol-4-yl)-1H-1,3-benzodiazol-2-yl]-4-[(2-oxopyrrolidin-1-yl)methyl]benzamide] | – | > 1 | < 0.01 | 0.08 | 0.1 | 12.5@0.2% | 1.35 | 32.9 | 0.888 | 1.05 | < 1 | > 1
6 | COc1ccc(-c2cnn(C)c2)c2nc(NC(=O)N3CC[C@@]4(CCCOC4)C3)[nH]c12 [compound 114, (5S)-N-[7-methoxy-4-(1-methyl-1H-pyrazol-4-yl)-1H-1,3-benzodiazol-2-yl]-7-oxa-2-azaspiro[4.5]decane-2-carboxamide] | – | > 1 | < 0.01 | 0.9 | 0.9 | 9@0.2% | 0.566 | 66.6 | 1.44 | 0.842 | > 1 | > 1
7 | CCCn1c(=O)[nH]c(=O)c2[nH]cnc21 [enprofylline, 3-n-propylxanthine] | mid to high nM range | – | – | – | – | – | – | – | – | – | – | –
